{
  "source": "patent US7834152B2",
  "about": "“Antagonists of interleukin-15” (Beth Israel Deaconess Medical Center, Inc., priority 1996, dated 2010)",
  "key": {"[1]": {"tested_on": "PHA-activated PBMCs", "experiment": "Proliferative response to IL-2 or IL-15 of PBMCs pre-treated with immunosuppressive drugs and PHA", "conditions": "cells pre-treated with PHA and drug, washed, cultured with IL-2 2 days"}, "[2]": {"tested_on": "human PBMCs"}, "[3]": {"tested_on": "BAF-BO3 cells transfected with pRcCMV-IL-2Rβ", "experiment": "[3H]-TdR proliferation assay, BAF-BO3 cells expressing human IL-2Rβ", "format": "cell-based, murine", "conditions": "for cell proliferation ([3H]-TdR incorporation): cells expressing wild-type human IL-2Rβ subunit", "description": "(§1) The BAF-BO3 cell line is an IL-3-dependent, murine pro-B cell line. A BAF-BO3 cell line that was pre-selected for high expression of the IL-2Rα subunit was kindly provided by T. Taniguchi (Osaka, Japan; Hatakeyama et al., Cell 59:837, 1989). BAF-BO3 cells were transfected with vector control (pRcCMV-0) or cDNA encoding the human IL-2Rβ subunit cloned into pRcCMV (pRcCMV-IL-2Rβ), by electroporation at 350 volts and 500 μFarads using 20 μg of ScaI linearized plasmid. Transfected cells were selected in the presence of 1 mg/ml G418 and tested for the expression of the IL-2Rβ subunit by fluorescence activated cell sorting (FACS) analysis as described (Maslinski et al., Int. Immunol. 4:509, 1992; Hataleyama et al., Cell 59:837, 1989).\nIL-3 dependent BAF-BO3 cells, which constitutively express the IL-2Rγ subunit, were transfected with a control pRcCMV construct (pRcCMV-0) or a pRcCMV construct containing cDNA encoding the full-length human IL-2Rβ_subunit and the neo^r gene (pRcCMV-IL-2Rβ). G418 resistant clones were then selected. Cells that were selected in this way were used to test the biological activity of FLAG-HMK-IL-15. […] Cells were washed twice to remove the medium containing the growth factor IL-3, and starved for 16 hours in RPMI-1640 medium supplemented with 10% FCS, penicillin (0.5 U/ml), and streptomycin (0.5 μg/ml). Cells were then plated at 2×10^4 cells/well, stimulated with FLAG-HMK-IL-15, and cultured for 72 hours at 37° C. in an atmosphere containing 5% CO2. This was followed by a 14 hour “pulse” with 1 μCi of [^3H]-TdR. The BAF-BO3 cells were then harvested and cell-associated radioactivity was measured by scintillation counting as described above.\nIn order to study the effect of various IL-15 related proteins, including the mutant polypeptides described above, on the proliferation of BAF-BO3 cells, the following experiment was performed in vitro. BAF-BO3 cells were transfected in culture with DNA from either pRcCMV-IL-2Rβ or pRcCMV-0."}, "[4]": {"tested_on": "BAF-BO3 cells transfected with pRcCMV-0", "experiment": "[3H]-TdR proliferation assay, BAF-BO3 vector control cells", "format": "cell-based, murine", "conditions": "vector lacking IL-2Rβ chain sequences", "description": "as §1\nIL-3 dependent BAF-BO3 cells, which constitutively express the IL-2Rγ subunit, were transfected with a control pRcCMV construct (pRcCMV-0) or a pRcCMV construct containing cDNA encoding the full-length human IL-2Rβ_subunit and the neo^r gene (pRcCMV-IL-2Rβ). G418 resistant clones were then selected. Cells that were selected in this way were used to test the biological activity of FLAG-HMK-IL-15. […] The BAF-BO3 cells were then harvested and cell-associated radioactivity was measured by scintillation counting as described above. […]"}, "[5]": {"tested_on": "PHA-activated human PBMCs", "experiment": "[3H]-TdR proliferation assay, PHA-activated human PBMCs", "format": "cell-based", "conditions": "PHA-activated PBMCs re-stimulated with reagent", "quoted_text": "Peripheral blood mononuclear cells (1×10^6/ml) were stimulated with PHA (2 μg/ml) for 72 hours at 37° C. in RPMI-1640 medium supplemented with 10% FCS, penicillin, and streptomycin, as described above.\nIn the next series of experiments, the FLAG-HMK-IL-15 fusion protein was tested in order to determine whether it could function as a biologically active growth factor."}, "[6]": {"target": "T1, IL-15Rα subunit (Homo sapiens, UniProt Q13261)", "T1 construct": "endogenous in cells", "T1 sequence (Q13261 31-267)": "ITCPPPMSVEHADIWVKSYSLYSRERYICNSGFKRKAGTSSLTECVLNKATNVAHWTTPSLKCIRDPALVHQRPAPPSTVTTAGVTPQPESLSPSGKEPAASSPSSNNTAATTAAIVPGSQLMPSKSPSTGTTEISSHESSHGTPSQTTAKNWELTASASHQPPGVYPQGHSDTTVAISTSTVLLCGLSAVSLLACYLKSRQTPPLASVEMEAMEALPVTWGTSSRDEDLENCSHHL", "experiment": "Cross-linking of [32P]-FLAG-HMK-IL-15 to PHA-activated PBMCs (DSS, SDS-PAGE, autoradiography)", "format": "binding", "description": "After 72 hours in culture, PHA-activated PBMCs were washed twice in cold phosphate-buffered saline (PBS), and 10^7 cells/ml were incubated for 30 minutes at 4° C. in 400 μl of RMPI-1640 medium supplemented with 25 mM HEPES (pH 7.4), 10% FCS, penicillin (0.5 U/ml), and streptomycin (0.5 μg/ml). Supplemented RPMI-1640 medium (20 μl) containing 1 μg of recombinant human IL-15 as a control for non-specific binding or medium alone was then added, and the incubation was continued for 15 minutes before 20 μl of medium containing [^32P]-labeled FLAG-HMK-IL-15 (1 ng, 500,000 cpm) was added to each sample. After further incubation for 1 hour at 4° C., the cells were washed with PBS and resuspended in 250 μl of PBS. Disuccinimidyl suberate (DDS; 1 mM), a cross-linker, was added, and cross-linking was performed as described by Tsudo et al. (Proc. Natl. Acad. Sci. USA 83:9694, 1986). The cross-linked cells were collected by centrifugation, washed, solubilized with extraction buffer (2% Nonidet P-40, 0.14 M NaCl, 25 mM HEPES (pH 7.4), 1 mM phenyl-methylsulfonyl fluoride) and centrifuged. Proteins present in the supernatants of these cell lysates were separated by 8% SDS-PAGE under reducing conditions. An autoradiogram was developed from the dry gel after exposure at −70° C. overnight. […]"}, "[7]": {"tested_on": "leukemia cells (MOLT-14, YT, HuT-102, 2A, 2B)", "experiment": "Flow cytometry staining of leukemic cell lines with FLAG-HMK-IL-15", "format": "binding", "description": "The cells treated were from the leukemic cell lines MOLT-14, YT, HuT-102, and from cell lines currently being established at Beth Israel Hospital (Boston, Mass.), and designated 2A and 2B. The cultured cells were washed and incubated with either medium alone (tracing alone) or with medium containing the FLAG-HMK-IL-15 polypeptide (tracing filled in). The cells were then incubated with the biotinylated anti-FLAG antibody and stained with RED670-conjugated streptavidin. The stained cells were analyzed by flow cytometry.\nThe cells treated were obtained from the leukemic cell lines MOLT-14, YT, HuT-102, and from cell lines currently being established at Beth Israel Hospital (Boston, Mass.), and named 2A and 2B. The cultured cells were washed and incubated with either medium alone or with medium containing the FLAG-HMK-IL-15 wild-type polypeptide (FIG. 18). The cells were then incubated with the biotinylated anti-FLAG antibody and stained with RED670-conjugated streptavidin. The stained cells were analyzed by flow cytometry."}, "[8]": {"tested_on": "IL-2Rαγ+ BAF-BO3 cells that express mutant S− IL-2Rβ subunit", "experiment": "Proliferation assay, BAF-BO3 cells expressing mutant S− IL-2Rβ subunit", "format": "cell-based, murine", "conditions": "IL-2Rβ lacking serine-rich region (S−), 38 hours", "excerpt": "Error bars indicate the mean±standard deviation.\nTherefore, the ability of IL-15 to induce the proliferation of IL-2Rαγ^+BAF-BO3 cells that express either the wild-type IL-2Rβ subunit or a mutant IL-2Rβ protein that lacks the serine rich region (S^−)."}, "[9]": {"tested_on": "IL-15 binding sites on PHA-activated human PBMCs", "experiment": "Flow cytometry staining of PHA-activated PBMCs (anti-FLAG biotinylated Ab, streptavidin-RED670)", "description": "Resting or PHA-activated PBMCs (3×10^5 cells/tube) were washed twice with ice-cold PBS/0.02% sodium azide and incubated in medium containing FLAG-HMK-IL-15 (0.1 μg/100 μl) or, as a control, in medium alone. The incubation was carried out on ice for 30 minutes. The cells were then washed with PBS and incubated for two sequential 30 minute periods at 4° C. with biotin-conjugated anti-FLAG monoclonal antibody (0.5 μg/100 μl) and streptavidin-RED670 (0.5 μg/100 μl). The cells were then counterstained with CD25-PE, CD14-PE, CD16-PE, CD122-PE, CD4-FITC, or CD8-FITC, as indicated. […] Cell surface phenotype was analyzed using FACScan (Becton/Dickinson, Calif.) and Cell Quest software.\nThe FLAG-HMK-IL-15 fusion protein, biotinylated anti-FLAG antibody, and streptavidin-RED670 were employed to detect expression of IL-15 binding sites on human PBMCs by cytofluorometric analysis. […] The stained cells were analyzed by flow cytometry (FIG. 4A). […] Both activated CD4^+ and CD8^+ cells express IL-15α chains (FIG. 4C); Activation induced IL-15α chains were also detected on CD14^+ (monocyte/macrophage) cells and CD16^+ (natural killer) cells.\nPHA-activated PBMCs were washed and incubated with medium alone, or with the FLAG-HMK-IL-15 double mutant. […] The stained cells were analyzed by flow cytometry (FIG. 17)."}},
  "note": "Entries after “also recorded” stand apart in the source; their conditions may differ. Where two headings read alike, the source gives them in different places.",
  "data": [
    {"molecule": "C[C@@H]1C[C@H]2[C@@H]3CCC4=CC(=O)C=C[C@]4(C)[C@@]3(F)[C@@H](O)C[C@]2(C)[C@@]1(O)C(=O)CO", "note": "[dexamethasone]", "values": [
      {"measurement": "proliferative response to IL-2", "setting": "[1]", "value": "not inhibited"}
    ]},
    {"molecule": "O=c1c(-c2ccc(O)cc2)coc2cc(O)cc(O)c12", "note": "[genistein]", "values": [
      {"measurement": "cell viability", "setting": "[2]; genistein 10 μg/ml, 3 days of incubation", "value": "659±15 % of the control"}
    ]},
    {"molecule": "CO[C@H]1C[C@@H]2CC[C@@H](C)[C@@](O)(O2)C(=O)C(=O)N2CCCC[C@H]2C(=O)O[C@H]([C@H](C)C[C@@H]2CC[C@@H](O)[C@H](OC)C2)CC(=O)[C@H](C)/C=C(\\C)[C@@H](O)[C@@H](OC)C(=O)[C@H](C)C[C@H](C)/C=C/C=C/C=C/1C", "note": "[rapamycin]", "values": [
      {"measurement": "cell viability", "setting": "[2]; human, 3 days, 10 ng/ml", "value": "8.5%±10%"}
    ]},
    {"molecule": "FLAG-HMK-IL-15 Q149D single mutant: IL-15 single mutant, glutamine at position 149 changed to aspartate, FLAG-HMK tagged", "values": [
      {"measurement": "cell proliferation ([3H]-TdR incorporation)", "setting": "[3]", "value": "stimulated cellular proliferation"}
    ]},
    {"molecule": "FLAG-HMK-IL-15: IL-15 polypeptide having an N-terminus covalently bound to the 18 amino acid FLAG-HMK-sequence", "values": [
      {"measurement": "cell proliferation ([3H]-TdR incorporation)", "setting": "[4]", "value": "does not, however, stimulate the proliferation"},
      {"measurement": "cell proliferation ([3H]-TdR incorporation)", "setting": "[5]", "value": "proliferate in response to"},
      {"measurement": "binding to the IL-15Rα subunit on mitogen-activated PBMCs", "setting": "[6]; [32P]-labeled protein, DSS cross-linking, 4° C.", "value": "site specific binding"},
      {"measurement": "binding to leukemia cells", "setting": "[7]", "value": "bind leukemia cells"},
      {"measurement": "cell proliferation ([3H]-TdR incorporation)", "setting": "[3]", "value": "stimulates proliferation; also recorded: stimulated cellular proliferation"}
    ]},
    {"molecule": "IL-15: recombinant human IL-15 obtained from PeproTech", "values": [
      {"measurement": "cell proliferation", "setting": "[8]", "value": "neither cytokine is able to stimulate"},
      {"measurement": "blocking of FLAG-HMK-IL-15 binding to PHA activated PBMCs", "setting": "[9]; molar excess of competitor", "value": "blocked"},
      {"measurement": "competition of [32P]-FLAG-HMK-IL-15 cross-linked band", "setting": "[6]; molar excess of competitor", "value": "failed to detect"},
      {"measurement": "cell proliferation ([3H]-TdR incorporation)", "setting": "[3]", "value": "stimulate the proliferation; also recorded: stimulated cellular proliferation"}
    ]},
    {"molecule": "double mutant IL-15: human IL-15 protein bearing a double mutation (Q149D; Q156D), FLAG-HMK tagged", "values": [
      {"measurement": "binding to PHA-activated human PBMCs", "setting": "[9]; flow cytometry", "value": "bind PHA-activated human PBMCs"},
      {"measurement": "inhibition of BAF-BO3 proliferation", "setting": "[3]; IL-15 + double mutant, 30 μl (approximately 50 μg/ml) versus 20 μL of the same concentration", "value": "inhibited proliferation more completely"},
      {"measurement": "cell proliferation ([3H]-TdR incorporation)", "setting": "[3]", "value": "did not proliferate"}
    ]}
  ]
}
